Columns and labels:
[1] = refractive index (Na D-line) (dimensionless); xn = mol fraction of the nth substance listed; details: 101.3 kPa, Liquid, Standard Abbe refractometry
[2] = xn = mol fraction of the nth substance listed; details: 101.3 kPa, Liquid; for speed of sound: Sing-around technique in a fixed-path interferometer; for mass density: Vibrating tube method

CCCCn1cc[n+](C)c1.COS(=O)(=O)[O-] [1-butyl-3-methylimidazolium methyl sulfate] + CC(C)O
Details	mass density, [2] [kg/m3]	refractive index, [1]	speed of sound, [2] [m/s]
298.15 K, x1 = 0.0482	835.17	1.38886	1181.2
298.15 K, x1 = 0.0965	880.673	1.40004	1219.7
298.15 K, x1 = 0.1938	955.343	1.41819	1292.5
298.15 K, x1 = 0.2928	1013.5	1.43226	1358.2
298.15 K, x1 = 0.3902	1059.05	1.44304	1415
298.15 K, x1 = 0.496	1099.29	1.45252	1470.4
298.15 K, x1 = 0.5903	1128.61	1.45942	1514.7
298.15 K, x1 = 0.6902	1154.5	1.46547	1556.5
298.15 K, x1 = 0.7978	1177.96	1.47086	1596.4
298.15 K, x1 = 0.9531	1205.6	1.47709	1642.9
298.15 K, x1 = 1	1212.06	1.47824	1654.6
303.15 K, x1 = 0.0482	831.096	1.38696	1165.3
303.15 K, x1 = 0.0965	876.702	1.39831	1204.4
303.15 K, x1 = 0.1938	951.52	1.41666	1278.2
303.15 K, x1 = 0.2928	1009.8	1.43067	1344.3
303.15 K, x1 = 0.3902	1055.42	1.44158	1401.7
303.15 K, x1 = 0.496	1095.74	1.45108	1457.6
303.15 K, x1 = 0.5903	1125.13	1.458	1502.1
303.15 K, x1 = 0.6902	1151.05	1.46409	1544.2
303.15 K, x1 = 0.7978	1174.52	1.46948	1584.2
303.15 K, x1 = 0.9531	1202.22	1.47576	1630.7
303.15 K, x1 = 1	1208.7	1.47704	1642.2
308.15 K, x1 = 0.0482	826.964	1.38495	1148.9
308.15 K, x1 = 0.0965	872.696	1.39643	1188.9
308.15 K, x1 = 0.1938	947.68	1.41492	1263.7
308.15 K, x1 = 0.2928	1006.09	1.42902	1330.4
308.15 K, x1 = 0.3902	1051.78	1.44001	1388.3
308.15 K, x1 = 0.496	1092.2	1.44958	1444.6
308.15 K, x1 = 0.5903	1121.71	1.45655	1489.5
308.15 K, x1 = 0.6902	1147.61	1.46268	1531.7
308.15 K, x1 = 0.7978	1171.15	1.4681	1571.9
308.15 K, x1 = 0.9531	1198.85	1.47442	1618.5
308.15 K, x1 = 1	1205.35	1.47577	1630
313.15 K, x1 = 0.0482	822.774	1.38288	1132.5
313.15 K, x1 = 0.0965	868.646	1.3945	1173.3
313.15 K, x1 = 0.1938	943.827	1.41317	1249.1
313.15 K, x1 = 0.2928	1002.39	1.4274	1316.5
313.15 K, x1 = 0.3902	1048.13	1.43845	1375
313.15 K, x1 = 0.496	1088.68	1.44808	1431.8
313.15 K, x1 = 0.5903	1118.31	1.4551	1476.9
313.15 K, x1 = 0.6902	1144.23	1.46125	1519.4
313.15 K, x1 = 0.7978	1167.77	1.46674	1559.7
313.15 K, x1 = 0.9531	1195.49	1.47306	1606.4
313.15 K, x1 = 1	1202.01	1.47443	1617.9

CCCCn1cc[n+](C)c1.COS(=O)(=O)[O-] [1-butyl-3-methylimidazolium methyl sulfate] + CCCCO
Details	mass density, [2] [kg/m3]	refractive index, [1]	speed of sound, [2] [m/s]
298.15 K, x1 = 0.0425	843.506	1.40525	1261.4
298.15 K, x1 = 0.0922	882.293	1.41307	1285.1
298.15 K, x1 = 0.1929	948.953	1.42652	1333.2
298.15 K, x1 = 0.2926	1002.76	1.43736	1379.5
298.15 K, x1 = 0.3915	1047.2	1.44629	1424.2
298.15 K, x1 = 0.4981	1087.51	1.45433	1471
298.15 K, x1 = 0.5997	1120.12	1.4608	1513.5
298.15 K, x1 = 0.7996	1172.03	1.47095	1589.4
298.15 K, x1 = 1	1212.06	1.47824	1654.6
303.15 K, x1 = 0.0425	839.735	1.40335	1245.6
303.15 K, x1 = 0.0922	878.554	1.41133	1270
303.15 K, x1 = 0.1929	945.272	1.42489	1318.8
303.15 K, x1 = 0.2926	999.143	1.43578	1365.8
303.15 K, x1 = 0.3915	1043.64	1.44477	1411
303.15 K, x1 = 0.4981	1084.01	1.45286	1458.1
303.15 K, x1 = 0.5997	1116.66	1.45937	1500.9
303.15 K, x1 = 0.7996	1168.59	1.46959	1577.1
303.15 K, x1 = 1	1208.7	1.47704	1642.2
308.15 K, x1 = 0.0425	835.931	1.40141	1229.6
308.15 K, x1 = 0.0922	874.794	1.40946	1254.6
308.15 K, x1 = 0.1929	941.58	1.42315	1304.3
308.15 K, x1 = 0.2926	995.525	1.43415	1351.8
308.15 K, x1 = 0.3915	1040.09	1.44321	1397.5
308.15 K, x1 = 0.4981	1080.52	1.45136	1445.1
308.15 K, x1 = 0.5997	1113.21	1.45792	1488.2
308.15 K, x1 = 0.7996	1165.14	1.46821	1564.7
308.15 K, x1 = 1	1205.35	1.47577	1630
313.15 K, x1 = 0.0425	832.1	1.39946	1213.7
313.15 K, x1 = 0.0922	871.02	1.40762	1239.3
313.15 K, x1 = 0.1929	937.88	1.42144	1289.8
313.15 K, x1 = 0.2926	991.896	1.43253	1338
313.15 K, x1 = 0.3915	1036.54	1.44166	1384.2
313.15 K, x1 = 0.4981	1077.03	1.44987	1432.3
313.15 K, x1 = 0.5997	1109.78	1.45646	1475.7
313.15 K, x1 = 0.7996	1161.71	1.46682	1552.6
313.15 K, x1 = 1	1202.01	1.47443	1617.9

— the NIST ThermoML archive (doi:10.1016/j.jct.2012.08.030)
